Assay results taken from US20240269095A1, “Rapid Onset Therapeutic Ketosis Enabled by D-BetaHydroxyButyric Acid Systems, Compounds and Methods for Stroke medication co-administration” (American Ketone Therapeutics LLC, priority 2022, published 2024).

Assays:
[1] = compared with ketone salts, literature table; cited from earlier work
[2] = Continuous Ketone Meter (CKM) monitoring of body ketone levels and deep sleep; type: in vivo, human; details: 5 grams consumed 45 minutes prior to bedtime
Excerpt: FIG. 12 is a graphical illustration of continuous monitoring of body ketone levels resulting in improved deep sleep time due to enhanced D-BHB levels according to the claimed invention. It is noteworthy that consumption of even small amounts of free D-BetaHydroxy Butyric Acid can give rise to therapeutic ketosis levels as measured by Continuous Ketone Meter (CKM). […] While free D-BetaHydroxyButyric Acid is not a sedative, even small amounts can greatly improve deep sleep quantity and quality. It is an intended and foreseeable embodiment application to increase deep sleep with free D-BetaHydroxyButyric Acid with the aim of improving stroke recovery and enhanced brain resiliency.

[3] = Stated properties of free D-BHB (Table 1); set-up: species or system human
[4] = Blood ketone level by Abbott blood ketone meter / test strip after oral free D-BHB; type: in vivo, human
Excerpt: FIG. 9 is a graphical illustration of D-BHB exogenous ketone blood levels. The above Abbot blood ketone meter evidenced by Abbott blood test strip depicts the rapid rise in blood ketone levels from 0.1 mmol/L (absence of ketosis) to 2.7 mmol/L (ketosis) after oral bolus administration of 15 grams of bioidentical free D-BetaHydroxyButyric Acid. The ketone levels depicted are attained in the absence of a salt as well as without ester bonds. It is the free acid D-BHB exogenously administered which is bio-identical to the endogenous D-BHB free acid generated by the human body. The bioidentical ketone body D-BHB is first and foremost an energy source, which is directly and preferentially metabolized by the brain. D-BHB is also active as a signaling mechanism and neuro-inflammation reduction agent, resulting in broad and beneficial brain bioenergy related benefits.
FIG. 10 is a graphical illustration of D-BHB exogenous ketone blood levels. FIG. 10 details rapid ketosis within 45 minutes confirmed by Abbott blood test strip after 10 g D-BHB with palatability agent administered by oral drink. Blood ketone levels document rise from 0.2 mmol/L to 1.8 mmol/L and 0.6 mmol/L to 1.9 mmol/L in a variety of test subjects. FIG. 10 reinforces the fact that supplementation by utilizing free D only BetaHydroxyButyric Acid without ketone salt or ketone ester is a reliable, reproducible method and system for rapid ketone level increase for stroke recovery and maintenance. While amounts of free D only BetaHydroxyButyric Acid taken for stroke effects may vary, it is an anticipated preferred embodiment that levels between 5 and 30 grams of D only BetaHydroxyButyric Acid are taken as needed for optimum recovery. Alternate embodiments may include lower or higher amounts, however, experimental evidence has confirmed optimal administration in this range for a wide variety of other applications.

[5] = Continuous glucose monitoring (Abbot Libre CGM) with carbohydrate challenge; type: in vivo, human; details: 10 g given 45 minutes before 50 g carbohydrate ingestion; compared with unsupplemented ingestion
Excerpt: FIG. 11 is a graphical illustration of continuous monitoring of body glucose levels. FIG. 11 depicts continuous glucose monitoring levels with carbohydrate challenge documented by Abbot Libre Continuous Glucose Monitoring (CGM) device. In this illustrative embodiment, glucose levels from a 50 g carbohydrate ingestion are depicted unaided by free D-BetaHydroxyButyric Acid on the left and repeated the following day with two 50 g carbohydrate ingestions accompanied by 10 g free D-BetaHydroxyButyric Acid administered 45 minutes before the carbohydrate insult. […] As free D-BetaHydroxyButyric Acid can lower glucose while rapidly increasing ketone levels, it is believed that obtaining high ketones while lowering glucose will yield additional stroke recovery benefits for high glucose sensitive individuals suffering from stroke.

SMILES | ketone level response [1] | deep sleep quantity [2] | increase in ketone level (CKM) [2] [mmol/L] | Induces Ketoacidosis [3] | Metabolism [3] | time to ketosis ([4]; 10 g D-BHB with palatability agent by oral drink) [min] | blood ketone level after administration ([4]; 10 g with palatability agent by oral drink, test subject rising from 0.2 mmol/L) [mmol/L] | blood ketone level after administration ([4]; 10 g with palatability agent by oral drink, test subject rising from 0.6 mmol/L) [mmol/L] | blood ketone level after administration ([4]; oral bolus of 15 grams, rise from 0.1 mmol/L (absence of ketosis)) [mmol/L] | glucose spike after carbohydrate ingestion [5]
C[C@@H](O)CCOC(=O)C[C@@H](C)O [ketone ester, (R)-3-hydroxybutyl (R)-3-hydroxybutyrate] | higher ketone level response |  |  |  |  |  |  |  |  | 
C[C@@H](O)CC(=O)O [free D-BetaHydroxyButyric Acid, D-β-HydroxyButyric Acid] |  | enhance the quantity of deep sleep obtained | 1.5 | Induces Ketoacidosis: No | Metabolism: Rapid, minutes | ≤ 45 | 1.8 | 1.9 | 2.7 | rapid glucose spike depicted in the unsupplemented ingestion is not found
